Common to all, as to format: in vivo
For one experiment, the system named is Scirpus species (SCPSS). Briefly: Herbicidal mixtures for weed control in transplanted paddy rice (in-water application, visual % injury). Particulars: SCPJU. The gist of the method: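 Weeds sown in flooded puddled mineral soil (pH ~7.3–7.8, ~1.0% organic matter) and treated at second–third true leaf stage by injecting acetone/2.5% Agri-dex stock into the paddy water. A, C and D dosed as acid equivalent, partner herbicides as active ingredient. Injury scored visually after 3 weeks in greenhouse, 0–100% versus untreated plants.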

Experiment [1] relates to wild pansy (Viola tricolor L; VIOTR). Briefly: Postemergence herbicidal activity of mixtures in cereal crops (greenhouse, visual injury). Particulars: Viola tricolor, post-emergence, read-out: VIOTR Ob. The method, boiled down:
(§1)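 Weeds grown in greenhouse (~14 h photoperiod, ~18/17 °C day/night) to second–third true leaf stage, sprayed postemergence with compound and second cereal herbicide alone or combined; solvent-blank controls. Injury scored visually after 20-22 days, 0–100% (complete kill); expected mixture activity = A+B−(A×B/100).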

Experiment [2] has as its system bird's-eye speedwell (Veronica persica L; VERPE). The description is as above. Particulars: for VERPE Ob: Table 28. The gist of the method:
as §1

In experiment [3] the test system is Eleocharis kuroguwai OHWI (ELOKU). The experiment is described as follows: Herbicidal mixtures for weed control in transplanted paddy rice (in-water application, visual % injury). The method, boiled down: (§2)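 Paddy flood, greenhouse ~29/26° C; weeds at 2nd–3rd true leaf stage. Herbicide stocks (acetone/2.5% crop oil concentrate) injected into water; solvent blank controls. Visual % injury, 0–100, at 3 weeks.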

Experiment [4] concerns Scirpus maritimus L. (SCPMA). The experiment is described as above. The method, boiled down: as §2

Where two headings read alike, the source gives them in different places.

For the molecule `COC(=O)c1nc(-c2ccc(Cl)c(OC)c2F)cc(N)c1Cl` [Compound A Methyl, 4-amino-3-chloro-6-(4-chloro-2-fluoro-3-methoxyphenyl)pyridine-2-carboxylic acid methyl ester], in the experiment on Scirpus species (SCPSS) (17.5 g/ha alone), the “% Injury Ob” value is recorded as 90%. Besides, the pest or weed control at 17.5 g/ha in experiment [1] (17.5 g/ha) stood at 55%; in experiment [2] (Veronica persica, post-emergence, 17.5 g/ha, read-out: VERPE Ob), 45%. Besides, the pest or weed control at 35 g/ha in experiment [1] (35 g/ha) was determined as 63%; in experiment [2] (Veronica persica, post-emergence, 35 g/ha, read-out: VERPE Ob), 58%. Further, the pest or weed control at 70 g/ha was found to be 75% in experiment [1] (70 g/ha) and 70% in experiment [2] (Veronica persica, post-emergence, 70 g/ha, read-out: VERPE Ob).
As for `COc1c(Cl)ccc(-c2cc(N)c(Cl)c(C(=O)O)n2)c1F` [Compound A TEA, 4-amino-3-chloro-6-(4-chloro-2-fluoro-3-methoxyphenyl)pyridine-2-carboxylic acid], the “% Injury Ob” value is recorded as 30% in experiment [3] (35 g/ha alone); 20% in experiment [3] (70 g/ha alone); 0% in experiment [4] (35 g/ha alone); 50% in experiment [4] (70 g/ha alone); 60% with Scirpus species (SCPSS) (17.5 g/ha alone); 85% in the experiment on Scirpus species (SCPSS) (35 g/ha alone). Also, the “% Injury Ob” value with Scirpus species (SCPSS) (70 g/ha alone) stood at 95%. Besides, the pest or weed control at 8.75 g/ha is 30% in experiment [1] (8.75 g/ha alone) and 48% in experiment [2] (Veronica persica, post-emergence, 8.75 g/ha alone, read-out: VERPE Ob). In addition, the pest or weed control at 17.5 g/ha in experiment [1] (17.5 g/ha alone) was 40%; in experiment [2] (Veronica persica, post-emergence, 17.5 g/ha alone, read-out: VERPE Ob) it was 68%. The pest or weed control at 35 g/ha in experiment [1] (35 g/ha alone) was 47%; in experiment [1] (35 g/ha) it was 30%; in experiment [2] (Veronica persica, post-emergence, 35 g/ha alone, read-out: VERPE Ob) it was 79%; in experiment [2] (Veronica persica, post-emergence, 35 g/ha, 1st VERPE column, read-out: VERPE Ob), 60%; in experiment [2] (Veronica persica, post-emergence, 35 g/ha, 2nd VERPE column, read-out: VERPE Ob), 75%. Besides, the pest or weed control at 70 g/ha came to 60% in experiment [1] (70 g/ha alone); 60% in experiment [1] (70 g/ha); 88% in experiment [2] (Veronica persica, post-emergence, 70 g/ha alone, read-out: VERPE Ob); 60% in experiment [2] (Veronica persica, post-emergence, 70 g/ha, 1st VERPE column, read-out: VERPE Ob); 80% in experiment [2] (Veronica persica, post-emergence, 70 g/ha, 2nd VERPE column, read-out: VERPE Ob). In addition, the pest or weed control at 140 g/ha was 60% in experiment [1] (140 g/ha); 60% in experiment [2] (Veronica persica, post-emergence, 140 g/ha, 1st VERPE column, read-out: VERPE Ob); 85% in experiment [2] (Veronica persica, post-emergence, 140 g/ha, 2nd VERPE column, read-out: VERPE Ob). Also, the entries for the “VERPE Ob” value in experiment [2] (35 g/ha), in experiment [2] (70 g/ha) and in experiment [2] (140 g/ha) were 75%, 80% and 85%, respectively.

The values above are taken from US10556865B2, “Synergistic herbicidal composition containing certain pyridine or pyrimidine carboxylic acids and certain cereal and rice herbicides” (Dow AgroSciences, LLC, priority 2007, dated 2020).
